{"source": "patent US20200123396A1", "about": "“PRODUCTS PRESERVED WITH 5-CHLORO-2-METHYL-4-ISOTHIAZOLIN-3-ONE” (THOR GMBH, priority 2014, published 2020)", "key": {"[1]": {"test_system": "microorganisms introduced via the individual components of the paint", "assay": "microbiological investigations of the preserved emulsion paint", "type": "cell-based", "conditions": "20 ppm of 5-chloro-2-methylisothiazolin-3-one (2-methylisothiazolin-3-one content <1 wt %) in water-based emulsion paint; growth detectable in individual components", "excerpt": "Added to a preservative-free styrene-acrylate dispersion were 20 ppm of 5-chloro-2-methylisothiazolin-3-one, having a 2-methylisothiazolin-3-one content of <1 wt %. The styrene-acrylate dispersion thus preserved was then used for producing a water-based emulsion paint. The composition of the paint produced was as follows: • 25.7 wt % water • 0.2 wt % acrylate-based wetting and dispersing agent • 0.2 wt % mineral oil-based defoamer • 2.0 wt % water softener (sodium polyphosphate) • 0.2 wt % ammonia • 4.0 wt % titanium oxide (pigment) • 51.0 wt % calcium carbonate (filler) • 5.0 wt % talc (filler) • 0.4 wt %% cellulose ether • 2.0 wt % organic solvent for lowering the minimum film-forming temperature • 9.0 wt % the styrene-acrylate dispersion preserved with 20 ppm of 5-chloro-2-methylisothiazolin-3-one • 20 ppm 5-chloro-2-methylisothiazolin-3-one, having a 2-methylisothiazolin-3-one content of <1 wt %"}, "[2]": {"assay": "decomposition of 5-chloro-2-methylisothiazolin-3-one in the emulsion paint by cysteine, HPLC", "type": "physicochemical", "conditions": "after 3 hours, addition of 50 ppm of cysteine based on the emulsion paint", "excerpt": "In order, from the emulsion paint, which contained significant quantities of 5-chloro-2-methylisothiazolin-3-one, to produce a paint unobjectionable for allergics in relation to 5-chloro-2-methylisothiazolin-3-one and 2-methylisothiazolin-3-one present therein, to produce, these isothiazolin-3-ones were decomposed by addition of 50 ppm of cysteine, based on the emulsion paint."}, "[3]": {"assay": "destruction of 2-methylisothiazolin-3-one in an aqueous emulsion paint using sodium thiosulfate", "type": "physicochemical", "excerpt": "A drawback, however, is that according to the method described, the isothiazolinones, and especially the MIT, are not destroyed quantitatively or irreversibly, and so are still always present in the products and derivatives, and may still as before cause problems to persons reacting allergically, and/or may give rise to contact eczemas or aerogenic contact eczemas in persons having a high degree of sensitization."}}}
{"smiles": "Cn1sc(Cl)cc1=O", "note": "[5-chloro-2-methylisothiazolin-3-one]", "values": [{"measurement": "microbial growth in the emulsion paint", "setting": "[1]", "result": "no microbial growth"}, {"measurement": "detectability of 5-chloro-2-methylisothiazolin-3-one in the emulsion paint by HPLC", "setting": "[2]", "result": "no longer detectable"}]}
{"smiles": "Cn1sccc1=O", "note": "[2-methylisothiazolin-3-one]", "values": [{"measurement": "destruction of 2-methylisothiazolin-3-one", "setting": "[3]", "result": "destroyed neither quantitatively nor irreversibly"}]}
